Paper PMC11521914 (Frontiers in Pharmacology, 2024)

Key:
[1] = molecular target: T1, Glucose-6-phosphatase enzyme (G6Pase) (Rattus norvegicus, UniProt P43428); test: Glucose-6-phosphatase (G6Pase) enzyme activity inhibition assay; format: biochemical; settings: rat liver microsome-enriched supernatant, 20 mM G6P
T1 construct: dilutions of the supernatant enriched with microsomes were prepared with buffer; from tissue; host or cells: rat liver, microsome-enriched fraction
T1 sequence (P43428 1-357): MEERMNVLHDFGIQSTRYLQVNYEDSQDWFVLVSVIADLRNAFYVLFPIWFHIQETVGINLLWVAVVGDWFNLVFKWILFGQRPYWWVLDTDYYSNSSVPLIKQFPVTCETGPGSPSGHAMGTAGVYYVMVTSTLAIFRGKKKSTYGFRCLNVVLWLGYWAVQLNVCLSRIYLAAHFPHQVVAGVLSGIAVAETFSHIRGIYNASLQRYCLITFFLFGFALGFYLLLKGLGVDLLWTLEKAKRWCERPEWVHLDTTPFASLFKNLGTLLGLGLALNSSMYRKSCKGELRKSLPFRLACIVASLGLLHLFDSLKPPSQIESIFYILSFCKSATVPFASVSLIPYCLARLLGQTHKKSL
Experimental: Livers were removed from 18-h fasted healthy rats (3), which were previously anesthetized with 5% isoflurane ([Unit for Laboratory Animal Medicine, 2023]). Then, they were homogenized in buffer (250 mM sucrose, 1 mM EDTA, 5 mM HEPES, pH 7.4), filtered, and subsequently subjected to differential centrifugation as described by [Andrade-Cetto and Cárdenas-Vázquez (2010)]. Both the microsome-enriched supernatant (containing the enzyme complex glucose-6-phosphatase) and the cytosolic supernatant (containing the enzyme fructose-1,6-bisphosphatase) were collected and stored at −40°C until use.
Colorimetric assays were carried out to detect the formation of a phosphomolybdate complex, which is proportional to the activity of the G6Pase enzyme complex. The reaction turns blue when G6Pase releases the inorganic phosphate and therefore the lower the color intensity, the greater the inhibition ([Arion, 1989]). […] Finally, the absorbance was measured at 830 nm.
Finally, for in vitro experiments, absorbance values were transformed into activity percentages following the next formula: Enzyme activity %=AS−ASB/AC−ACB×100
Where A S is the absorbance of the inhibitor sample at a specific concentration, A SB is the blank of the inhibitor sample, A C is the highest absorbance (without inhibitor), and A CB is the blank of the highest absorbance. […]

[2] = tested on: normoglycemic (healthy) rats; test: Fasting glucose and insulin levels, normoglycemic rats; format: in vivo, Wistar rats; settings: normoglycemic rats fasted 12 h, 2 h, glibenclamide 5 mg/kg
Experimental: (§1) All procedures carried out on animals were approved by the Academic Ethics and Scientific Responsibility Commission (CEARC) of the School of Sciences, UNAM with protocol numbers PI_2021_08_23, PI_2022_21_05b, and PI_2022_22_07. Wistar rats of both sexes, 8 weeks old, were acquired and maintained under standard bioterium conditions (25°C, 55% humidity and 12:12 h light and dark photoperiod) with water and food ad libitum. Treatment administration (vehicle and samples) was performed orally with the help of an esophageal cannula. Blood samples were obtained from the tail vein and glucose measurements were performed in duplicate using Accu-Chek® Active glucometers.
(§2) Normoglycemic (healthy) and hyperglycemic rats were used after 12 h of fasting selecting those with blood glucose levels between 90 and 110 mg/dL and 180–220 mg/dL, respectively. Before the administration of the treatment and every 30 min for 2 h, glucose levels were determined and additional blood samples (approximately 300 µL) were obtained, which were immediately centrifuged at 10,000 g for 10 min. […] Insulin quantification was performed using the immunoassay Rat/Mouse Insulin ELISA kit EZRMI-13KEMD Millipore/Merck ([Espinoza-Hernández et al., 2021]). […]
(§3) Data are presented as mean ± standard error of the mean (SEM). […] Differences detected with p < 0.05 were considered statistically significant. […]

[3] = tested on: STZ-NA-hyperglycemic rats; test: Evaluation of the hypoglycemic effect (acute glucose curves); format: in vivo, Wistar rats
Experimental: as §1
In summary hyperglycemia was induced as described by [Masiello et al. (1998)], rats fasted for 12 h were administered intraperitoneally with 150 mg/kg b. w. of NA and, 15 min later, 65 mg/kg b. w. of STZ was injected intravenously. After 2 weeks, animals with blood glucose values above 180 mg/dL were selected to perform the tests described below.
Basal glucose levels were assessed before giving the treatments. Immediately after the administration of treatments, glucose levels were monitored every hour for 3 h ([Espinoza-Hernández et al., 2021]). Thirty rats fasted for 4 h were divided into five groups (n = 6 each group): 1. Normoglycemic Control (N), administered with physiological solution (vehicle); 2. Hyperglycemic Control (H), which received physiological solution; 3. Hyperglycemic Control + glibenclamide, which was administered with 5 mg/kg b. w. (Aurax®) (HGli) ([Berridge et al., 1992]); 4. Hyperglycemic Group + EtOH-WCg, which received 30 mg/kg b. w. (HCg); and 5. Hyperglycemic Group + junceic acid, administered with 5.6 mg/kg b. w. (HJa).

[4] = tested on: STZ-NA-hyperglycemic rats; test: Fasting glucose and insulin levels, hyperglycemic rats; format: in vivo, Wistar rats; settings: hyperglycemic rats fasted 12 h, 2 h; glibenclamide 5 mg/kg, EtOH-WCg 30 mg/kg, junceic acid 5.6 mg/kg b.w.
Experimental: as §1, with “glucometers. […]” for “glucometers.”
as §2, §3

[5] = tested on: normoglycemic (healthy) rats; test: Insulin tolerance tests (insulin sensitivity assessment); format: in vivo, Wistar rats; settings: healthy rats fasted 4 h
Experimental: as §1
First, basal glucose was determined and, immediately after, treatments were given. Forty-5 min later, glucose levels were measured and then isophane insulin (Aurax®; 0.5 U/kg b. w.) was administered intraperitoneally. Glucose levels were monitored at minutes 15, 30, 60, and 120 after insulin injection. In total, 24 rats were divided into four groups (n = 6 each group): 1. Control, which received physiological solution (C); 2. […]
Where Tx is the value of glucose or insulin at each time and T0 is the baseline value. Next, AUC were calculated and compared by applying t tests for intergroup comparisons and repeated measures ANOVA followed by Dunnett post hoc tests for intragroup comparisons. […]

[6] = tested on: STZ-NA-hyperglycemic rats; test: Postprandial glucose and insulin levels (glucose tolerance test), hyperglycemic rats; format: in vivo, Wistar rats; settings: glucose load 2 g/kg
Experimental: as §1, with “glucometers. […]” for “glucometers.”
as §2, §3

[7] = tested on: normoglycemic (healthy) rats; test: Postprandial glucose and insulin levels (glucose tolerance test), normoglycemic rats; format: in vivo, Wistar rats; settings: glucose load 2 g/kg
Experimental: as §1, §2, §3

## O=C(/C=C/c1ccc(O)c(O)c1)O[C@@H]1C[C@](O)(C(=O)O)C[C@@H](O)[C@H]1O [Clorogenic acid, chlorogenic acid]
[1]
  IC50: 346 µM
  Inhibition %: 83%

## COc1ccc(Cl)cc1C(=O)NCCc1ccc(S(=O)(=O)NC(=O)NC2CCCCC2)cc1 [glibenclamide]
[2]; EtOH-WCg 30 mg/kg b.w.
  effect on plasma insulin in fasting: increase in plasma insulin
[2]; EtOH-WCg 30 mg/kg, junceic acid 5.6 mg/kg b.w.
  effect on blood glucose in fasting: significant hypoglycemic effect
[3]; 60 min after administration, maintained throughout the experiment, p < 0.05
  hypoglycemic effect compared with the hyperglycemic control group (H): significant hypoglycemic effect
[3]; STZ-NA-hyperglycemic rats fasted 4 h, oral, 3 h curve, glibenclamide 5 mg/kg, EtOH-WCg 30 mg/kg, junceic acid 5.6 mg/kg b.w.
  glucose decrease at the end of the study: 57%
[3]; STZ-NA-hyperglycemic rats fasted 4 h, oral, glibenclamide 5 mg/kg, EtOH-WCg 30 mg/kg, junceic acid 5.6 mg/kg b.w.
  decrease of total blood glucose (AUC) compared with control (H): 65%
[4]
  effect on blood glucose in fasting: significant hypoglycemic effect
  effect on plasma insulin in fasting: increase in plasma insulin

## CCc1ccc(CCOc2ccc(CC3SC(=O)NC3=O)cc2)nc1 (stereo not drawn) [pioglitazone]
[5]; insulin tolerance test, 120 min
  inverse AUC and KITT analyzes compared with control (C): eliminated more glucose throughout the experiment at a higher removal rate than C
[5]; isophane insulin 0.5 U/kg i.p. 45 min after treatment, pioglitazone 20 mg/kg, EtOH-WCg 30 mg/kg, junceic acid 5.6 mg/kg b.w.
  potentiation of the glucose-lowering effect of insulin compared with control (C): exacerbated the glucose-lowering effect of insulin

## CCOc1cc(CC(=O)N[C@@H](CC(C)C)c2ccccc2N2CCCCC2)ccc1C(=O)O [repaglinide]
[6]; at 30 min, repaglinide 1 mg/kg b.w.
  increase of insulin levels: under 25%
[6]; repaglinide 1 mg/kg, EtOH-WCg 30 mg/kg, junceic acid 5.6 mg/kg b.w.
  effect on postprandial hyperglycemia after the glucose load: significantly decreased the hyperglycemic peak
[7]; healthy rats, at 30 min, repaglinide 1 mg/kg b.w.
  increase of insulin levels: more than 500%
[7]; normoglycemic rats, repaglinide 1 mg/kg, EtOH-WCg 30 mg/kg, junceic acid 5.6 mg/kg b.w.
  effect on the hyperglycemic peak after the glucose load: significantly decreased the hyperglycemic peak
